Results from patent publication US20170360795A1, “TREATMENT OF CANCERS USING PI3 KINASE ISOFORM MODULATORS” (INFINITY PHARMACEUTICALS, INC., priority 2013, published 2017).
“Also recorded” adds a separate entry of the source.

Key:
central nervous system = test: Neurofunctional study (FOB, motor activity); assay type: in vivo, Sprague-Dawley rat
serum biomarkers = test: Serum biomarkers in patients, 28 day cycles; assay type: in vivo, human
[1] = embryo/fetal developmental toxicity study in rabbits; conditions: female, rabbit, in vivo, 75 mg/kg/day; pregnant rabbits, last day of dosing; read-out: mean AUCO24 hr at the NOAEL
[2] = test system: serum cytokines/chemokines; test: serum cytokines/chemokines of patients by Milliplex immuno-assay; assay type: in vivo, human
Method: Serum concentrations of a panel of human cytokines/chemokines were determined by Milliplex 96-well immuno-assay as described below.
the blood was allowed to clot for at least 30 minutes before centrifugation for 10 minutes at 1000×g. Serum was removed and either assayed immediately or aliquoted and stored at ≦−20° C. When using frozen samples, it is recommended to thaw the samples completely, mix well by vortexing and centrifuge prior to use in the assay to remove particulates.
1.0 mL deionized water was added to the bottle containing lyophilized Serum Matrix (catalog number MX HSM from MILLIPLEX® Map), and was allowed to be mixed will for at least 10 minutes for complete reconstitution.
200 μL of wash buffer was added into each well of the plate. The plate was sealed and mixed on a plate shaker for 10 minutes at room temperature (20-25° C.). The wash buffer was decanted and the residual amount was removed from all wells by inverting the plate and tapping it smartly onto absorbent towels several times. 25 μL of each standard or control was added into the appropriate wells. Assay buffer was used for 0 pg/mL standard (Background). 25 μL of assay buffer was added to the sample wells. 25 μL of appropriate matrix solution was added to the background, standards, and control wells. 25 μL of serum sample was added into the appropriate wells. 25 μL of the mixed or premixed Beads for the tested cytokines/chemokines was added to each well. The plate was sealed with a plate sealer, wrapped with foil and incubated with agitation on a plate shaker overnight at 4° C. or 2 hours at room temperature (20-25° C.). An overnight incubation (16-18 hr) may improve assay sensitivity for some analytes. […]
The plate was run on Luminex 200™, HTS, FLEXMAP 3D™ or MAGPIX® with xPONENT software. The Median Fluorescent Intensity (MFI) data was saved and analyzed using a 5-parameter logistic or spline curve-fitting method for calculating cytokine/chemokines concentrations in samples.
The serum analytes examined included: (1) human cytokines/chemokinds (EGF, CCL11, FGF-2, Flt-3 ligand, CX3CL1, G-CSF, GM-CSF, CXCL1, CXCL10, IFNα2, IFNγ, IL-α, IL-β, IL-1ra, IL-2, sIL-2Rα, IL-3, IL-4, IL-5, IL-6, IL-7, IL-8, IL-9, IL-10, IL-12 (p40), IL-12 (p70), IL-13, IL-15, IL-17, IL-1ra, IL-1α, IL-13, IL-2, IL-3, CCL2, CCL7, CCL22, CCL3, CCL4, PDGF-AA, PDGF-AB/BB, CCL5, sCD40L, sIL-2Rα, TGFα, TNFα, TNFβ, VEGF, CCL21, CXCL13, CCL27, CXCL5, CCL24, CCL26, CCL1, IL-16, IL-20, IL-21, IL-23, IL-28, IL-33, LIF, CCL8, CCL13, CCL15, SCF, CXCL12, CCL17, TPO, TRAIL, and TSLP); and (2) matrix metaloproteinases (MMP-1, MMP-2, MMP-3, MMP-7, MMP-9, MMP-10, MMP-12, MMP-13, TIMP-1, and TIMP-2). The change in serum concentration of an analyte was determined by comparing the pre- and post-treatment serum samples.

SU-DHL-6 = test: cellular growth inhibition assay (72 hour CTG), DLBCL; assay type: cell-based; conditions: SU-DHL-6 (GCB)
[3] = test system: phospho-AKT in OCI-LY-8 cells; test: phospho-AKT after BCR crosslinking; assay type: cell-based
Text: These biochemical findings indicate a mechanistic rationale for combination of PI3K-δ,γ and BTK inhibition.

In the case of `C[C@H](Nc1ncnc2[nH]cnc12)c1cc2cccc(Cl)c2c(=O)n1-c1ccccc1` [Compound 292], the locomotor activity (central nervous system; 2 h after a 350 mg/kg dose) is reported as “Significant decreases”, the “effects on the central nervous system” value (central nervous system; dose levels ≦50 mg/kg) is reported as “No effects” and the “levels of CLL biomarkers in serum” value (serum biomarkers; 25 mg BID) is reported as “decrease”. For the same compound, the “levels of T-cell lymphoma biomarkers in serum” value (serum biomarkers; 25 mg BID) was “decrease”, the “levels of iNHL biomarkers in serum” value (serum biomarkers; 25 mg BID) was “decrease” and the “levels of lymphoma biomarkers in serum” value (serum biomarkers; 25 mg BID) was “decrease”. For the same compound, the “levels of CLL biomarkers in serum” value (serum biomarkers; 25 mg or 75 mg BID) was “decrease”, the “levels of iNHL biomarkers in serum” value (serum biomarkers; 25 mg or 75 mg BID) was “decrease” and the AUC [1] was 66.2 µg·h/mL. For the same compound, the “serum levels of CXCL13, CCL3, CCL4, CCL17, CCL22, TNFα and IL-12 (p40)” value ([2]; CLL patients, 25 mg BID, C1D8 and C2D1 vs C1D1 predose) was “substantially reduced”, the “serum concentrations of CXCL13, CCL4, CCL17, CCL22 and TNF-α” value ([2]; CLL/SLL and iNHL/MCL/FL patients) was “decreased serum concentrations” and the “serum levels of CXCX13, CCL17, CCL22 and TNFα” value ([2]; iNHL patients, 28 days cycle, 25 mg BID) was “significant reduction”. The “serum levels of CXCL13, CCL17 and MMP-9” value ([2]; lymphoma patients, 25 mg BID, C1D8 and C2D1 vs C1D1) was “substantially reduced”, the “sensitivity in cellular growth inhibition assay” value (SU-DHL-6) was “more sensitive; also recorded: nanomolar (nM) range” and the “phospho-AKT increase after BCR crosslinking” value [3] was “completely inhibited”.
